Results: US8114880B2, “Piperidine or piperazine substituted tetrahydro-naphthalene-1-carboxylic acid MTP inhibiting compounds” (Janssen Pharmaceutica N.V., priority 2006, dated 2012)

Target: MTP (Homo sapiens, UniProt P55157)
Experiment: MTP assay (triglyceride transfer from donor to acceptor vesicles)
Type: biochemical
Details: MTP activity, percent triglyceride transfer from donor to acceptor vesicles, 37° C.
Procedure: MTP activity was measured using an assay similar to one described by J. R. Wetterau and D. B. Zilversmit in Chemistry and Physics of Lipids, 38, 205-222 (1985). To prepare the donor and acceptor vesicles, the appropriate lipids in chloroform were put into a glass test tube and dried under a stream of nitrogen. A buffer containing 15 mM Tris-HCl pH 7.5, 1 mM EDTA, 40 mM NaCl, 0.02% NaN3 (assay buffer) was added to the dried lipid. The mixture was vortexed briefly and the lipids were then allowed to hydrate for 20 minutes on ice. Vesicles were then prepared by bath sonication (Branson 2200) at room temperature for maximum 15 minutes. Butylated hydroxytoluene was included in all vesicle preparations at a concentration of 0.1%. The lipid transfer assay mixture contained donor vesicles (40 nmol phosphatidylcholine, 7.5 mol % of cardiolipin and 0.25 mol % glycerol tri [1-^14C]-oleate), acceptor vesicles (240 nmol phosphatidylcholine) and 5 mg BSA in a total volume of 675 μl in a 1.5 ml microcentrifuge tube. Test compounds were added dissolved in DMSO (0.13% final concentration). After 5 minutes of pre-incubation at 37° C., the reaction was started by the addition of MTP in 100 μl dialysis buffer. The reaction was stopped by the addition of 400 μl DEAE-52 cellulose pre-equilibrated in 15 mM Tris-HCl pH 7.5, 1 mM EDTA, 0.02% NaN3 (1:1, vol/vol). The mixture was agitated for 4 minutes and centrifuged for 2 minutes at maximum speed in an Eppendorf centrifuge (4° C.) to pellet the DEAE-52-bound donor vesicles. An aliquot of the supernatant containing the acceptor liposomes was counted and the [^14C]-counts were used to calculate the percent triglyceride transfer from donor to acceptor vesicles.

Chain of MTP (P55157 19-894, species assumed): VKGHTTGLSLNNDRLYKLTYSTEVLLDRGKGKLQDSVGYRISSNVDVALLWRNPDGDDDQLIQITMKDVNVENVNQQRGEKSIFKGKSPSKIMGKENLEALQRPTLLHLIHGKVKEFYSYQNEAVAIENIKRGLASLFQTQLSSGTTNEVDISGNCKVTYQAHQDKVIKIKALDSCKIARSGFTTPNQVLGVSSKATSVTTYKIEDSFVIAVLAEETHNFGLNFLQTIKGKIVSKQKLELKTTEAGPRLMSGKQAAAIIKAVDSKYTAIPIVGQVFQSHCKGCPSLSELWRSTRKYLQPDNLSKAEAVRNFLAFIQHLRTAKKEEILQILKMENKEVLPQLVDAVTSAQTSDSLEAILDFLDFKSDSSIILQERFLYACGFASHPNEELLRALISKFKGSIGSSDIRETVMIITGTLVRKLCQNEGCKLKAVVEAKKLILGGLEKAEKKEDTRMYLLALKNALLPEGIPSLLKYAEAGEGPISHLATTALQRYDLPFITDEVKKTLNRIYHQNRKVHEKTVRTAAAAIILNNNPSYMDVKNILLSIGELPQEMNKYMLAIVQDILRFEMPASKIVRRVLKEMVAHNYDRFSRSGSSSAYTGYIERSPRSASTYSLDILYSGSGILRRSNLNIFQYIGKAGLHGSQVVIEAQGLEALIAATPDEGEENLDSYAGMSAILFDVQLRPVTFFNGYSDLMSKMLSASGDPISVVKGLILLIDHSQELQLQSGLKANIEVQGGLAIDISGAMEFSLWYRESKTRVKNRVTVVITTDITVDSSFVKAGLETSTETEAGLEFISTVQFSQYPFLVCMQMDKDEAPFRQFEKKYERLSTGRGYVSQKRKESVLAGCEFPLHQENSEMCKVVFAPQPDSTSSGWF
Chain of MTP (P07237 18-508 partner, species assumed): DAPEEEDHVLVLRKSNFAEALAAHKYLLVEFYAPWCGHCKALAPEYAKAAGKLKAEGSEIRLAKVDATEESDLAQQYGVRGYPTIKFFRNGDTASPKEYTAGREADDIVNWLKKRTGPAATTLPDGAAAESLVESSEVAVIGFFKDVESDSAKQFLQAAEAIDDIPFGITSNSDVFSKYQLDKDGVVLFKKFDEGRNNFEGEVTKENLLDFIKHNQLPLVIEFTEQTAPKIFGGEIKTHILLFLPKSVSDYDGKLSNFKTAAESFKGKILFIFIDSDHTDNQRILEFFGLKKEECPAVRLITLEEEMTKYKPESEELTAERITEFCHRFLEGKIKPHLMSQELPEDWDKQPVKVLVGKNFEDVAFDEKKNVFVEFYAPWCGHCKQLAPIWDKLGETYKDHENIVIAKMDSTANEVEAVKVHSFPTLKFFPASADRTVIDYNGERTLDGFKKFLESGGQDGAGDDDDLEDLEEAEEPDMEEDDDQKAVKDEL

Row | IC50 [nM] | SMILES
1 | 1790 | CCOC(=O)CC(C)NC(=O)[C@@]1(c2ccccc2)CC[C@H](C(=O)N2CCC(NC(=O)c3cccn(C)c3=O)CC2)c2ccccc21 (mixture of isomers) [Co. No. 223]
2 | 689 | CCNC(=O)[C@]1(c2ccccc2)CC[C@H](C(=O)N2CCC(NC(=O)c3ccccc3OC)CC2)c2ccccc21 [Co. No. 9]
3 | 778 | C=CCOC(=O)[C@]1(c2ccccc2)CC[C@H](C(=O)N2CCC(NC(=O)c3ccccc3)CC2)c2ccccc21 [Co. No. 12]
4 | 277 | CCNC(=O)[C@]1(c2ccccc2)CC[C@@H](CN2CCC(NC(=O)c3ccccc3)CC2)c2ccccc21 [Co. No. 17]
5 | 3340 | CCOC(=O)[C@]1(c2ccccc2)CC[C@H](C(=O)N2CCN(C(=O)c3ccccc3)CC2)c2ccccc21 [Co. No. 29]
6 | 601 | CCOC(=O)[C@]1(c2ccccc2)CC[C@H](C(=O)N2CCN(C(=O)c3ccccc3OC)CC2)c2ccccc21 [Co. No. 30]
7 | 348 | CCOC(=O)[C@]1(c2ccccc2)CC[C@H](C(=O)N2CCN(C(=O)c3ccccc3-c3ccc(C(F)(F)F)cc3)CC2)c2ccccc21 [Co. No. 31]
8 | 7830 | COc1ccccc1C(=O)NC1CCN(C(=O)[C@H]2CC[C@](C(N)=O)(c3ccccc3)c3ccccc32)CC1 [Co. No. 37]
9 | 3820 | CCNC(=O)[C@]1(c2ccccc2)CC[C@@H](C(=O)N2CCC(NC(=O)c3ccccc3OC)CC2)c2ccccc21 [Co. No. 38]
10 | 627 | COC(=O)[C@]1(c2ccccc2)CC[C@@H](C(=O)N2CCC(NC(=O)c3cc(S(N)(=O)=O)ccc3OC)CC2)c2ccccc21 [Co. No. 52]
11 | 2.51 | COC(=O)[C@]1(c2ccccc2)CC[C@@H](C(=O)N2CCC(NC(=O)c3ccccc3OC)CC2)c2ccccc21 [Co. No. 60]
12 | 493 | CCOC(=O)[C@H](CO)NC(=O)[C@@]1(c2ccccc2)CC[C@H](C(=O)N2CCC(NC(=O)c3ccccc3OC)CC2)c2ccccc21 [Co. No. 71]
13 | 326 | CCOC(=O)[C@@H]1CCCN1C(=O)[C@@]1(c2ccccc2)CC[C@H](C(=O)N2CCC(NC(=O)c3ccccc3OC)CC2)c2ccccc21 [Co. No. 76]
14 | 217 | CCOC(=O)[C@H]1CCCN1C(=O)[C@@]1(c2ccccc2)CC[C@H](C(=O)N2CCC(NC(=O)c3ccccc3OC)CC2)c2ccccc21 [Co. No. 77]
15 | 3820 | COC(=O)[C@@H]1C[C@@H](O)CN1C(=O)[C@@]1(c2ccccc2)CC[C@H](C(=O)N2CCC(NC(=O)c3ccccc3OC)CC2)c2ccccc21 [Co. No. 78]
16 | 11.7 | COc1ccccc1C(=O)NC1CCN(C(=O)[C@H]2CC[C@@](C(=O)N(C)CC(=O)OC(C)(C)C)(c3ccccc3)c3ccccc32)CC1 [Co. No. 87]
17 | > 100 | COc1ccccc1C(=O)NC1CCN(C(=O)[C@H]2CC[C@@](C(=O)N3C[C@H](OC(C)(C)C)C[C@H]3C(=O)OC(C)(C)C)(c3ccccc3)c3ccccc32)CC1 [Co. No. 91]
18 | > 10000 | COc1ccccc1C(=O)NC1CCN(C(=O)[C@H]2CC[C@@](C(=O)N3C[C@H](O)C[C@H]3C(=O)O)(c3ccccc3)c3ccccc32)CC1 [Co. No. 92]
19 | 9.33 | COc1ccccc1C(=O)NC1CCN(C(=O)[C@H]2CC[C@@](C(=O)N[C@H](C)C(=O)OC(C)(C)C)(c3ccccc3)c3ccccc32)CC1 [Co. No. 93]
20 | 210 | COc1ccccc1C(=O)NC1CCN(C(=O)[C@H]2CC[C@@](C(=O)N3CCCC3C(=O)OC(C)(C)C)(c3ccccc3)c3ccccc32)CC1 (some centres unmarked) [Co. No. 94]
21 | 140 | COc1ccccc1C(=O)NC1CCN(C(=O)[C@H]2CC[C@@](C(=O)N[C@@H](C(=O)OC(C)(C)C)c3ccccc3)(c3ccccc3)c3ccccc32)CC1 [Co. No. 95]

Row | IC50 [nM] | SMILES
22 | 4120 | COc1ccccc1C(=O)NC1CCN(C(=O)[C@H]2CC[C@@](C(=O)N[C@H](C)C(=O)O)(c3ccccc3)c3ccccc32)CC1 [Co. No. 97]
23 | 4750 | COc1ccccc1C(=O)NC1CCN(C(=O)[C@H]2CC[C@@](C(=O)N3CCC[C@@H]3C(=O)O)(c3ccccc3)c3ccccc32)CC1 [Co. No. 98]
24 | > 10000 | COc1ccccc1C(=O)NC1CCN(C(=O)[C@H]2CC[C@@](C(=O)N[C@@H](C(=O)O)c3ccccc3)(c3ccccc3)c3ccccc32)CC1 [Co. No. 99]
25 | 6050 | COc1ccccc1C(=O)NC1CCN(C(=O)[C@H]2CC[C@@](C(=O)N[C@H](Cc3ccccc3)C(=O)O)(c3ccccc3)c3ccccc32)CC1 [Co. No. 100]
26 | 4.2 | COc1ccccc1C(=O)NC1CCN(C(=O)[C@H]2CC[C@@](C(=O)N[C@@H](C)C(=O)OC(C)(C)C)(c3ccccc3)c3ccccc32)CC1 [Co. No. 101]
27 | 219 | COc1ccccc1C(=O)NC1CCN(C(=O)[C@H]2CC[C@@](C(=O)N[C@H](C(=O)OC(C)(C)C)c3ccccc3)(c3ccccc3)c3ccccc32)CC1 [Co. No. 111]
28 | 163 | COc1ccccc1C(=O)NC1CCN(C(=O)[C@H]2CC[C@@](C(=O)N[C@@H](Cc3ccc(O)cc3)C(=O)OC(C)(C)C)(c3ccccc3)c3ccccc32)CC1 [Co. No. 113]
29 | 203 | COc1ccccc1C(=O)NC1CCN(C(=O)[C@H]2CC[C@@](C(=O)N[C@@H](Cc3c[nH]c4ccccc34)C(=O)OC(C)(C)C)(c3ccccc3)c3ccccc32)CC1 [Co. No. 114]
30 | 301 | COc1ccccc1C(=O)NC1CCN(C(=O)[C@H]2CC[C@@](C(=O)N[C@@H](CC(N)=O)C(=O)OC(C)(C)C)(c3ccccc3)c3ccccc32)CC1 [Co. No. 115]
31 | 8410 | COc1ccccc1C(=O)NC1CCN(C(=O)[C@H]2CC[C@@](C(=O)N[C@@H](C)C(=O)O)(c3ccccc3)c3ccccc32)CC1 [Co. No. 116]
32 | 4750 | COc1ccccc1C(=O)NC1CCN(C(=O)[C@H]2CC[C@@](C(=O)NC(C(=O)O)C(=O)O)(c3ccccc3)c3ccccc32)CC1 [Co. No. 117]
33 | 887 | COc1ccccc1C(=O)NC1CCN(C(=O)[C@H]2CC[C@@](C(=O)N[C@@H](C(=O)O)C(C)C)(c3ccccc3)c3ccccc32)CC1 [Co. No. 118]
34 | > 10000 | COc1ccccc1C(=O)NC1CCN(C(=O)[C@H]2CC[C@@](C(=O)N[C@@H](CC(C)C)C(=O)O)(c3ccccc3)c3ccccc32)CC1 [Co. No. 119]
35 | > 10000 | COc1ccccc1C(=O)NC1CCN(C(=O)[C@H]2CC[C@@](C(=O)N[C@@H](COC(C)(C)C)C(=O)O)(c3ccccc3)c3ccccc32)CC1 [Co. No. 120]
36 | 4750 | COc1ccccc1C(=O)NC1CCN(C(=O)[C@H]2CC[C@@](C(=O)N[C@@H](CCC(=O)O)C(=O)O)(c3ccccc3)c3ccccc32)CC1 [Co. No. 122]
37 | 3820 | COc1ccccc1C(=O)NC1CCN(C(=O)[C@H]2CC[C@@](C(=O)N3CCC[C@H]3C(=O)O)(c3ccccc3)c3ccccc32)CC1 [Co. No. 123]
38 | > 10000 | COc1ccccc1C(=O)NC1CCN(C(=O)[C@H]2CC[C@@](C(=O)N[C@H](C(=O)O)c3ccccc3)(c3ccccc3)c3ccccc32)CC1 [Co. No. 124]
39 | 8610 | COc1ccccc1C(=O)NC1CCN(C(=O)[C@H]2CC[C@@](C(=O)N[C@@H](Cc3ccccc3)C(=O)O)(c3ccccc3)c3ccccc32)CC1 [Co. No. 125]
40 | 6190 | COc1ccccc1C(=O)NC1CCN(C(=O)[C@H]2CC[C@@](C(=O)N[C@@H](Cc3ccc(O)cc3)C(=O)O)(c3ccccc3)c3ccccc32)CC1 [Co. No. 126]
41 | > 10000 | COc1ccccc1C(=O)NC1CCN(C(=O)[C@H]2CC[C@@](C(=O)N[C@@H](Cc3c[nH]c4ccccc34)C(=O)O)(c3ccccc3)c3ccccc32)CC1 [Co. No. 127]
